{"source": "patent EP0751768B1", "about": "“ANTI-VIRAL AND ANTI-CANCER AGENT” (Radopath Pharmaceuticals International Limited, priority 1994, dated 1995)", "key": {"[1]": {"system": "Chronically infected cells (H9rf)", "test": "Chronically infected cell assay, HIV-1 antigen ELISA", "type": "cell-based", "settings": "Against Chronically infected cells"}, "uninfected H9 cells": {"system": "uninfected H9 cells", "test": "Toxicity in uninfected H9 cells, 14C protein hydrolysate incorporation, four days", "type": "cell-based", "settings": "listed under Against Chronically infected cells; average of the lines above", "experimental": "• (i) Acute Infection Assay. High titre virus stocks of the human immunodeficiency virus HIV-1RF were grown in H9 cells with RM1 1640 (Flow laboratories) supplemented with 10% fetal calf serum, penicillin (100IU/ml). Cell debris was removed by low speed centrifugation, and the supernatant stored at -70°C until required. In a typical assay C8166 T-lymphoblastoid CD4+ cells were incubated with 10xTCID50 HIV-1RF at 37°C for 90 minutes and then washed three times with phosphate buffered saline (PBS). Cell aliquots (2 x 10^5) were resuspended in 1.5ml growth medium in 6ml tubes, and active compounds in log dilutions [200µM to 0.2µM] were added immediately. 20mM stock solutions of each compound were made up in 70% alcohol. The compounds were stored as a powder and made up freshly in distilled water before each experiment or were stored as a […] stock solution in 70% alcohol. The final concentration of alcohol in the tissue culture medium was 1%. The cells were then incubated at 37°C in 5% CO2. […] The ELISA plates were read with a spectrophotometer. […] HIV-1 antigen in the supernatant was then measured using an ELISA. […] After 6 hours the cells were harvested and the ^14C incorporation measured. • (iii) Toxicity Assay. […] After 12, hours the cells were harvested and the ^14C incorporation measured. […] Toxicity is expressed as inhibition of uptake of ^14C protein hydrolysate. […]"}, "[2]": {"system": "MAC15A (murine adenocarcinoma colon)", "type": "in vivo, NMR1 mice", "settings": "mouse, in vivo, ip"}, "HIV-I IIIB": {"system": "HIV-I IIIB", "test": "Acute infection assay, HIV core antigen ELISA (HIV-I IIIB)", "type": "cell-based"}, "B16F1-murine melanoma": {"system": "B16F1-murine melanoma", "type": "in vivo", "settings": "mouse, in vivo"}, "[3]": {"system": "MAC13 murine colon adenocarcinoma", "test": "Anti-tumour activity against MAC13 (tumour weight inhibition)", "type": "in vivo", "settings": "12 days after im transplant, corn oil", "experimental": "(§1) The in vivo anti-tumour responses of the compound according to the invention were assessed against the ascitic tumours, MAC15A murine colon adenocarcinoma and various solid tumour models. The MAC15A ascites tumour cells were transplanted into male NMR1 mice by ip innoculation at a cell density of 1 x 10^5 cells in 200µl buffer (Table I). The solid tumour models included the MAC13 and MAC16 murine colon adenocarcinomas, the B16 F1 murine melanoma and the M5076 reticulum cell sarcoma.\n(§2) Treatment commenced 3 days after ip transplant or, in the case of solid tumours such as MAC13 and MAC16, treatment commenced when average tumour volumes reached 40mm^3.\n(§3) The animals were located in both cases into groups of 5 to 8 animals.\n(§4) The animals were sacrificed after 12 days or when tumours ulcerated, tumour volume exceeded 1000mm^3 or loss of body weight exceeded 50%.\n(§5) Except where otherwise stated, the compound used was dissolved in DMSO and diluted in sterile distilled water, at appropriate concentrations before administration in a solvent volume of 200µl. Anti-tumour responses were obtained by comparing the median survival times or tumour growth inhibition against solvent controls.\n(§6) % Tumour Weight Inhibition:-"}, "[4]": {"system": "M5076-reticulum cell sarcoma", "test": "Anti-tumour activity against M5076 solid tumour (tumour weight inhibition)", "type": "in vivo, murine", "settings": "for % Tumour Weight Inhibition: 16 days after im transplant, corn oil", "experimental": "as §1, §2, §3, §4, §5, §6"}, "[5]": {"system": "MAC16, murine colon adenocarcinoma", "test": "Anti-tumour activity against MAC16 (tumour weight inhibition)", "type": "in vivo", "settings": "for % Tumour Weight Inhibition: sc transplanted, day 11 after the beginning of treatment, tumour volumes at least 40mm^3 at start, corn oil", "experimental": "as §1, §2, §3, §4, §5, §6"}, "HIV-1RF": {"system": "HIV-1RF", "test": "microbe, parasite or virus in culture", "type": "cell-based, human immunodeficiency virus HIV-1RF"}, "in vitro": {"test": "in vitro", "settings": "CC50 (Toxicity)"}, "[6]": {"test": "Anti-tumour activity against M5076 solid tumour (tumour weight inhibition)", "type": "in vivo, murine", "settings": "mouse, in vivo; ip, per day, in corn oil; M5076 study; read-out: Maximum tolerated dose", "experimental": "as §1, §2, §3, §4, §5, §6"}}, "note": "Where “and” joins values, the source holds several entries; their conditions need not be identical. Identical values can stand only once."}
{"molecule": "O=C(O)c1cc([N+](=O)[O-])c(Cl)c([N+](=O)[O-])c1Cl", "note": "[C1, 2,4-dichloro-3,5-dinitrobenzoic acid]", "values": [{"measurement": "SI (Selectivity Index), Average", "setting": "[1]; average line", "value": 4}, {"measurement": "IC50", "setting": "[1]; Human immunodeficiency virus 1, 96 h, four days, single determinations, read-out: IC50 (Antiviral)", "value": 16, "unit": "µM"}, {"measurement": "CC50", "setting": "uninfected H9 cells", "value": 63, "unit": "µM"}, {"measurement": "T/C%", "setting": "[2]", "value": 243, "unit": "%"}, {"measurement": "SI (Selectivity Index)", "setting": "HIV-I IIIB", "value": 2}, {"measurement": "SI (Selectivity Index), Average", "setting": "HIV-I IIIB", "value": 3}, {"measurement": "IC50", "setting": "HIV-I IIIB; Human immunodeficiency virus 1, IIIB, read-out: IC50 (Antiviral), Average", "value": 27, "unit": "µM"}, {"measurement": "inhibition of tumour growth (in words)", "setting": "B16F1-murine melanoma", "value": "effectively inhibited growth"}, {"measurement": "% Tumour Weight Inhibition", "setting": "[3]; 50 mg/kg per day ip, days 1,2,3,4,5,6,7,8,9", "value": 39, "unit": "%"}, {"measurement": "% Tumour Weight Inhibition", "setting": "[3]; 75 mg/kg per day ip, days 1,4,5", "value": 45, "unit": "%"}, {"measurement": "% Tumour Weight Inhibition", "setting": "[4]; 25 mg/kg per day ip, days 1,2,4,6,9", "value": 75, "unit": "%"}, {"measurement": "% Tumour Weight Inhibition", "setting": "[4]; 25 mg/kg per day sc, days 1,2,4,5,6,7,9", "value": 63, "unit": "%"}, {"measurement": "% Tumour Weight Inhibition", "setting": "[4]; 50 mg/kg per day ip, days 1,4,6,9", "value": 57, "unit": "%"}, {"measurement": "% Tumour Weight Inhibition", "setting": "[4]; 50 mg/kg per day sc, days 1,2,4,5,6,7,9", "value": 76, "unit": "%"}, {"measurement": "% Tumour Weight Inhibition", "setting": "[4]; 75 mg/kg per day ip, days 1,4,6,9, listed as 2,4 BA", "value": "79% and 88%"}, {"measurement": "% Tumour Weight Inhibition", "setting": "[4]; 75 mg/kg per day sc, days 1,4,5,7,9", "value": 66, "unit": "%"}, {"measurement": "activity on a split-dose schedule down to (dose)", "setting": "[4]; by both ip and sc routes", "value": 25, "unit": "mg/kg body weight"}, {"measurement": "% Tumour Weight Inhibition", "setting": "[5]; 50 mg/kg per day ip, days 1,2,4,5,8", "value": 91, "unit": "%"}, {"measurement": "% Tumour Weight Inhibition", "setting": "[5]; 75 mg/kg per day ip, days 1,2,5,8", "value": 88, "unit": "%"}, {"measurement": "inhibition of tumour growth (in words)", "setting": "[5]; MAC16 murine colon adenocarcinoma", "value": "effectively inhibited growth"}, {"measurement": "SI (Selectivity Index), Average", "setting": "HIV-1RF", "value": 5}, {"measurement": "IC50", "setting": "HIV-1RF; Human immunodeficiency virus 1, C8166, read-out: IC50 (Antiviral), Average", "value": 11.5, "unit": "µM"}, {"measurement": "CC50", "setting": "in vitro", "value": 30, "unit": "µM"}]}
{"molecule": "COC(=O)c1cc([N+](=O)[O-])c(Cl)c([N+](=O)[O-])c1Cl", "note": "[C3, 2,4-dichloro-3,5-dinitrobenzoic acid methyl ester]", "values": [{"measurement": "CC50", "setting": "uninfected cells", "value": 7, "unit": "µM"}, {"measurement": "SI (Selectivity Index)", "setting": "HIV-I IIIB", "value": 23}, {"measurement": "MTD", "setting": "[6]", "value": 1, "unit": "mg/kg"}, {"measurement": "anti-tumour activity (in words)", "setting": "[4]", "value": "without anti-tumour activity"}, {"measurement": "% Tumour Weight Inhibition", "setting": "[4]; 0.25 mg/kg per day ip, days 1,2,3,4,5,6,7,8,9", "value": 42, "unit": "%"}, {"measurement": "% Tumour Weight Inhibition", "setting": "[4]; 0.5 mg/kg per day ip, days 1,2,3,4,5,6,7,8,9", "value": 39, "unit": "%"}, {"measurement": "% Tumour Weight Inhibition", "setting": "[4]; 1.0 mg/kg per day ip, days 1,2,3,4,5,6,7,8,9", "value": 41, "unit": "%"}, {"measurement": "increase in toxicity", "setting": "[4]; relative to 2,4-dichloro-3,5-dinitrobenzoic acid", "value": 10, "unit": "fold"}]}
